Data: PubChem BioAssay (NCI)
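Tested at 5 concentrations; 48 h exposure; 96-well plates; endpoints linearly interpolated, else capped at highest concentration. At the GI50, growth is halved. TGI marks complete inhibition of growth.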

Key:
Assay in all cases: NCI tumour cell line growth inhibition, 48 h
SK-MEL-28 melanoma = tested on: SK-MEL-28 melanoma
HOP-92 NSCLC = tested on: HOP-92 NSCLC
MCF7 breast = tested on: MCF7 breast
CAKI-1 renal = tested on: CAKI-1 renal
RXF 393 renal = tested on: RXF 393 renal
NCI/ADR-RES ovarian = tested on: NCI/ADR-RES ovarian
SK-OV-3 ovarian = tested on: SK-OV-3 ovarian
SW-620 colon = tested on: SW-620 colon
SNB-19 CNS = tested on: SNB-19 CNS
SF-539 CNS = tested on: SF-539 CNS
SF-268 CNS = tested on: SF-268 CNS
HCT-116 colon = tested on: HCT-116 colon
OVCAR-8 ovarian = tested on: OVCAR-8 ovarian
EKVX NSCLC = tested on: EKVX NSCLC
BT-549 breast = tested on: BT-549 breast
SNB-75 CNS = tested on: SNB-75 CNS
IGROV1 ovarian = tested on: IGROV1 ovarian
UO-31 renal = tested on: UO-31 renal
NCI-H23 lung = tested on: NCI-H23 lung
ACHN renal = tested on: ACHN renal
SF-295 CNS = tested on: SF-295 CNS
DU-145 prostate = tested on: DU-145 prostate
HOP-62 NSCLC = tested on: HOP-62 NSCLC
MDA-MB-435 = tested on: MDA-MB-435
SK-MEL-2 melanoma = tested on: SK-MEL-2 melanoma
UACC-257 melanoma = tested on: UACC-257 melanoma
NCI-H226 lung = tested on: NCI-H226 lung

Work on `NC(=O)c1ncn(C2OC(CO)C(O)C2O)c1N` (stereo not drawn) yielded a GI50 (SK-MEL-28 melanoma) of over 100 µM, a TGI (SK-MEL-28 melanoma) of over 100 µM and a GI50 (HOP-92 NSCLC) of over 100 µM. The TGI (HOP-92 NSCLC) was over 100 µM, the GI50 (MCF7 breast) was over 100 µM and the TGI (MCF7 breast) was over 100 µM. The GI50 (CAKI-1 renal) was over 100 µM, the TGI (CAKI-1 renal) was over 100 µM and the GI50 (RXF 393 renal) was over 100 µM. For the same compound, the TGI (RXF 393 renal) was over 100 µM, the GI50 (NCI/ADR-RES ovarian) was over 100 µM and the TGI (NCI/ADR-RES ovarian) was over 100 µM. For the same compound, the GI50 (SK-OV-3 ovarian) was over 100 µM, the TGI (SK-OV-3 ovarian) was over 100 µM and the GI50 (SW-620 colon) was over 100 µM. For the same compound, the TGI (SW-620 colon) was over 100 µM, the GI50 (SNB-19 CNS) was over 100 µM and the TGI (SNB-19 CNS) was over 100 µM. It also gave a GI50 (SF-539 CNS) of over 100 µM, a TGI (SF-539 CNS) of over 100 µM and a GI50 (SF-268 CNS) of over 100 µM. It also gave a TGI (SF-268 CNS) of over 100 µM, a GI50 (HCT-116 colon) of over 100 µM and a TGI (HCT-116 colon) of over 100 µM. For the same compound, the GI50 (OVCAR-8 ovarian) was 62.2 µM, the TGI (OVCAR-8 ovarian) was over 100 µM and the GI50 (EKVX NSCLC) was over 100 µM. The TGI (EKVX NSCLC) was over 100 µM, the GI50 (BT-549 breast) was over 100 µM and the TGI (BT-549 breast) was over 100 µM. For the same compound, the GI50 (SNB-75 CNS) was over 100 µM, the TGI (SNB-75 CNS) was over 100 µM and the GI50 (IGROV1 ovarian) was over 100 µM. The TGI (IGROV1 ovarian) was over 100 µM, the GI50 (UO-31 renal) was over 100 µM and the TGI (UO-31 renal) was over 100 µM. The GI50 (NCI-H23 lung) was over 100 µM, the TGI (NCI-H23 lung) was over 100 µM and the GI50 (ACHN renal) was over 100 µM. It also gave a TGI (ACHN renal) of over 100 µM, a GI50 (SF-295 CNS) of over 100 µM and a TGI (SF-295 CNS) of over 100 µM. For the same compound, the GI50 (DU-145 prostate) was 72.2 µM, the TGI (DU-145 prostate) was over 100 µM and the GI50 (HOP-62 NSCLC) was over 100 µM. For the same compound, the TGI (HOP-62 NSCLC) was over 100 µM, the GI50 (MDA-MB-435) was over 100 µM and the TGI (MDA-MB-435) was over 100 µM. It also gave a GI50 (SK-MEL-2 melanoma) of over 100 µM, a TGI (SK-MEL-2 melanoma) of over 100 µM and a GI50 (UACC-257 melanoma) of over 100 µM. The TGI (UACC-257 melanoma) was over 100 µM and the GI50 (NCI-H226 lung) was over 100 µM.
